Results on 37 compounds are retold here after paper PMC6919601, “Identification of Plasmodium dipeptidyl aminopeptidase allosteric inhibitors by high throughput screening” (PLoS ONE, 2019).

In the assay the target is T1, DPAP1 (Plasmodium falciparum, UniProt Q8IIJ9).
T1 sequence (Q8IIJ9 370-599 limits assumed): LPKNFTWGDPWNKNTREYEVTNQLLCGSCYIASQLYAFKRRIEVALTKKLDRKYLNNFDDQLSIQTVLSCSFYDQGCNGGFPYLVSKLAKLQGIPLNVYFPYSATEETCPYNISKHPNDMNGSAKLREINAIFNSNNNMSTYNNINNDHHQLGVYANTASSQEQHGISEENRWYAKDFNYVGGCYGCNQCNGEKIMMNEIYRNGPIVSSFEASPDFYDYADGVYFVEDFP
T1 sequence (Q8IIJ9 28-209 limits assumed): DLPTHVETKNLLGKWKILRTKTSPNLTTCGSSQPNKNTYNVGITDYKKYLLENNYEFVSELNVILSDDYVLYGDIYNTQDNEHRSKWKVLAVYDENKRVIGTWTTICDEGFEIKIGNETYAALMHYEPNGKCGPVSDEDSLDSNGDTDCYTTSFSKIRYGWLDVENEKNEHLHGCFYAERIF
T1 sequence (Q8IIJ9 600-700 limits assumed): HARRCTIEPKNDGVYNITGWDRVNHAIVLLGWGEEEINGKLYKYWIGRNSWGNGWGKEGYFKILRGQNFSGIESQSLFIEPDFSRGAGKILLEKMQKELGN
In words: biochemical. The note with it: for DPAP Primary hit (Hit = 1): 10 μM HTS, 0 not defined; for inhibition at 10 µM: 10 μM compound, parasite lysates, (PR)2Rho, 30 min end-point, read-out: DPAP1 % Inhibition @ 10 uM. In kind it is biochemical.

In general, inhibition refers to the change of the read-out against control, counted positive when it falls. Take `COc1cc(C2CC(=O)N3CN(C4CCCCC4)CSC3=C2C#N)ccc1O` (stereo not drawn) [SMDC170163, COc1cc(ccc1O)C2CC(=O)N3CN(CSC3=C2C#N)C4CCCCC4]: the “DPAP Primary hit (Hit = 1)” value was determined as 0 and the inhibition at 10 µM is -1%.
For the compound `COc1cc(C2CC(=O)N3CN(C4CCCCC4)CSC3=C2C#N)cc(OC)c1OC` (stereo not drawn) [SMDC170164, COc1cc(cc(OC)c1OC)C2CC(=O)N3CN(CSC3=C2C#N)C4CCCCC4], the “DPAP Primary hit (Hit = 1)” value was 0 and the inhibition at 10 µM was found to be 2%.
The matching figures for `COc1ccc2ccccc2c1C1CC(=O)N2CN(Cc3ccco3)CSC2=C1C#N` (stereo not drawn) [SMDC170165, COc1ccc2ccccc2c1C3CC(=O)N4CN(Cc5occc5)CSC4=C3C#N]: 0 and 31%.
The matching figures for `N#CC1=C2SCN(Cc3ccccc3)CN2C(=O)CC1c1cccc2ccccc12` (stereo not drawn) [SMDC170166, O=C1CC(C(=C2SCN(Cc3ccccc3)CN12)C#N)c4cccc5ccccc45]: 1 and 52%.
Take `CCc1ccc(C2CC(=O)N3CN(Cc4ccco4)CSC3=C2C#N)cc1` (stereo not drawn) [SMDC170172, CCc1ccc(cc1)C2CC(=O)N3CN(Cc4occc4)CSC3=C2C#N]: the “DPAP Primary hit (Hit = 1)” value is given as 0 and the inhibition at 10 µM is 34%.
Taken in the same sequence, the figures for `CCOc1cc(C2CC(=O)N3CN(Cc4ccccc4)CSC3=C2C#N)ccc1O` (stereo not drawn) [SMDC170173, CCOc1cc(ccc1O)C2CC(=O)N3CN(Cc4ccccc4)CSC3=C2C#N] were 0 and 20%.
For the compound `COc1cc(C2CC(=O)N3CN(C)CSC3=C2C#N)cc(OC)c1OC` (stereo not drawn) [SMDC170174, COc1cc(cc(OC)c1OC)C2CC(=O)N3CN(C)CSC3=C2C#N], the “DPAP Primary hit (Hit = 1)” value amounted to 0 and the inhibition at 10 µM was 4%.
The matching figures for `COc1ccc2ccccc2c1C1CC(=O)N2CN(C)CSC2=C1C#N` (stereo not drawn) [SMDC170175, COc1ccc2ccccc2c1C3CC(=O)N4CN(C)CSC4=C3C#N]: 0 and 37%.
Taken in the same sequence, the figures for `N#CC1=C2SCN(Cc3ccco3)CN2C(=O)CC1c1cccc2ccccc12` (stereo not drawn) [SMDC170176, O=C1CC(C(=C2SCN(Cc3occc3)CN12)C#N)c4cccc5ccccc45] were 0 and 46%.
As to `Cc1ccc(C2CC(=O)N3CN(CCC(C)C)CSC3=C2C#N)cc1` (stereo not drawn) [SMDC178751, CC(C)CCN1CSC2=C(C#N)C(CC(=O)N2C1)c3ccc(C)cc3], the “DPAP Primary hit (Hit = 1)” value was 0 and the inhibition at 10 µM is 44%.
The matching figures for `COc1ccc(C2CC(=O)N3CN(CCCc4ccccc4)CSC3=C2C#N)cc1OC` (stereo not drawn) [SMDC178760, COc1ccc(cc1OC)C2CC(=O)N3CN(CCCc4ccccc4)CSC3=C2C#N]: 0 and 31%.
For `Cc1ccc(C2CC(=O)N3CN(CCc4ccccc4)CSC3=C2C#N)cc1` (stereo not drawn) [SMDC178761, Cc1ccc(cc1)C2CC(=O)N3CN(CCc4ccccc4)CSC3=C2C#N], the “DPAP Primary hit (Hit = 1)” value is recorded as 1 and the inhibition at 10 µM turned out to be 64%.
For the compound `COc1ccc(C2CC(=O)N3CN(C(C)c4ccccc4)CSC3=C2C#N)cc1OC` (stereo not drawn) [SMDC178770, COc1ccc(cc1OC)C2CC(=O)N3CN(CSC3=C2C#N)C(C)c4ccccc4], the “DPAP Primary hit (Hit = 1)” value came to 0 and the inhibition at 10 µM came to 28%.
In the case of `N#CC1=C2SCN(C3CCCC3)CN2C(=O)CC1c1ccc(Cl)cc1` (stereo not drawn) [SMDC178771, Clc1ccc(cc1)C2CC(=O)N3CN(CSC3=C2C#N)C4CCCC4], the “DPAP Primary hit (Hit = 1)” value was 1 and the inhibition at 10 µM came out at 55%.
Regarding `COc1ccc(C2CC(=O)N3CN(CCC(C)C)CSC3=C2C#N)cc1OC` (stereo not drawn) [SMDC178780, COc1ccc(cc1OC)C2CC(=O)N3CN(CCC(C)C)CSC3=C2C#N], the “DPAP Primary hit (Hit = 1)” value is on record as 0 and the inhibition at 10 µM was found to be 47%.
`CC(c1ccccc1)N1CSC2=C(C#N)C(c3ccc(Cl)cc3)CC(=O)N2C1` (stereo not drawn) [SMDC178781, CC(N1CSC2=C(C#N)C(CC(=O)N2C1)c3ccc(Cl)cc3)c4ccccc4]: the “DPAP Primary hit (Hit = 1)” value is recorded as 1 and the inhibition at 10 µM was found to be 73%.
Turning to `CC(C)CCN1CSC2=C(C#N)C(c3ccc(Cl)cc3)CC(=O)N2C1` (stereo not drawn) [SMDC178791, CC(C)CCN1CSC2=C(C#N)C(CC(=O)N2C1)c3ccc(Cl)cc3], the “DPAP Primary hit (Hit = 1)” value came out at 1 and the inhibition at 10 µM stood at 55%.
Take `Cc1ccc(C2CC(=O)N3CN(Cc4cccnc4)CSC3=C2C#N)cc1` (stereo not drawn) [SMDC178800, Cc1ccc(cc1)C2CC(=O)N3CN(Cc4cccnc4)CSC3=C2C#N]: the “DPAP Primary hit (Hit = 1)” value worked out at 0 and the inhibition at 10 µM was 44%.
For `COc1ccc(CN2CSC3=C(C#N)C(c4ccc(C)cc4)CC(=O)N3C2)cc1` (stereo not drawn) [SMDC178810, COc1ccc(CN2CSC3=C(C#N)C(CC(=O)N3C2)c4ccc(C)cc4)cc1], the “DPAP Primary hit (Hit = 1)” value came to 0 and the inhibition at 10 µM was found to be 44%.
With `COc1ccc(C2CC(=O)N3CN(Cc4cccnc4)CSC3=C2C#N)cc1` (stereo not drawn) [SMDC178811, COc1ccc(cc1)C2CC(=O)N3CN(Cc4cccnc4)CSC3=C2C#N], the “DPAP Primary hit (Hit = 1)” value was determined as 0 and the inhibition at 10 µM turned out to be 46%.
The matching figures for `Cc1ccc(C2CC(=O)N3CN(C(C)c4ccccc4)CSC3=C2C#N)cc1` (stereo not drawn) [SMDC178820, CC(N1CSC2=C(C#N)C(CC(=O)N2C1)c3ccc(C)cc3)c4ccccc4]: 0 and 11%.
The matching figures for `CCOc1ccc(C2CC(=O)N3CN(Cc4cccnc4)CSC3=C2C#N)cc1` (stereo not drawn) [SMDC178821, CCOc1ccc(cc1)C2CC(=O)N3CN(Cc4cccnc4)CSC3=C2C#N]: 1 and 56%.
The matching figures for `COc1ccc(CN2CSC3=C(C#N)C(c4cccs4)CC(=O)N3C2)cc1` (stereo not drawn) [SMDC178823, COc1ccc(CN2CSC3=C(C#N)C(CC(=O)N3C2)c4cccs4)cc1]: 1 and 51%.
With `CCOc1ccc(C2CC(=O)N3CN(CCO)CSC3=C2C#N)cc1` (stereo not drawn) [SMDC178832, CCOc1ccc(cc1)C2CC(=O)N3CN(CCO)CSC3=C2C#N], the “DPAP Primary hit (Hit = 1)” value is 1 and the inhibition at 10 µM came out at 61%.
With `CC(c1ccccc1)N1CSC2=C(C#N)C(c3cccs3)CC(=O)N2C1` (stereo not drawn) [SMDC178833, CC(N1CSC2=C(C#N)C(CC(=O)N2C1)c3cccs3)c4ccccc4], the “DPAP Primary hit (Hit = 1)” value is reported as 1 and the inhibition at 10 µM came out at 68%.
Take `CCOc1ccc(C2CC(=O)N3CN(CCc4ccccc4)CSC3=C2C#N)cc1` (stereo not drawn) [SMDC178842, CCOc1ccc(cc1)C2CC(=O)N3CN(CCc4ccccc4)CSC3=C2C#N]: the “DPAP Primary hit (Hit = 1)” value is 1 and the inhibition at 10 µM was determined as 71%.
As to `N#CC1=C2SCN(CCc3ccccc3)CN2C(=O)CC1c1cccs1` (stereo not drawn) [SMDC178843, O=C1CC(C(=C2SCN(CCc3ccccc3)CN12)C#N)c4cccs4], the “DPAP Primary hit (Hit = 1)” value was 0 and the inhibition at 10 µM was found to be 43%.
The matching figures for `N#CC1=C2SCN(Cc3cccnc3)CN2C(=O)CC1c1ccc(F)cc1` (stereo not drawn) [SMDC178852, Fc1ccc(cc1)C2CC(=O)N3CN(Cc4cccnc4)CSC3=C2C#N]: 1 and 55%.
As to `N#CC1=C2SCN(CCN3CCOCC3)CN2C(=O)CC1c1ccc(F)cc1` (stereo not drawn) [SMDC178862, Fc1ccc(cc1)C2CC(=O)N3CN(CCN4CCOCC4)CSC3=C2C#N], the “DPAP Primary hit (Hit = 1)” value turned out to be 1 and the inhibition at 10 µM worked out at 50%.
As for `N#CC1=C2SCN(CCc3ccccc3)CN2C(=O)CC1c1ccc(F)cc1` (stereo not drawn) [SMDC178872, Fc1ccc(cc1)C2CC(=O)N3CN(CCc4ccccc4)CSC3=C2C#N], the “DPAP Primary hit (Hit = 1)” value was determined as 1 and the inhibition at 10 µM was 52%.
Taken in the same sequence, the figures for `N#CC1=C2SCN(C3CCCC3)CN2C(=O)CC1c1cccs1` (stereo not drawn) [SMDC178882, O=C1CC(C(=C2SCN(CN12)C3CCCC3)C#N)c4cccs4] were 0 and 48%.
Taken in the same sequence, the figures for `N#CC1=C2SCN(Cc3ccco3)CN2C(=O)CC1c1cccs1` (stereo not drawn) [SMDC178892, O=C1CC(C(=C2SCN(Cc3occc3)CN12)C#N)c4cccs4] were 0 and 48%.
Turning to `CC(C)C[C@H](NC(=O)N1CCOCC1)C(=O)N[C@H](/C=C/S(=O)(=O)c1ccccc1)CCc1ccccc1` [SMDC279744, CC(C)C[C@H](NC(=O)N1CCOCC1)C(=O)N[C@@H](CCc2ccccc2)\C=C\S(=O)(=O)c3ccccc3], the inhibition at 10 µM stood at 6.4%.
In the case of `CC[C@H](C)[C@H](NC(=O)OC(C)(C)C)C(=O)N[C@@H](CCc1ccccc1)C(=O)CCS(=O)(=O)c1ccccc1` [SMDC279745, CC[C@H](C)[C@H](NC(=O)OC(C)(C)C)C(=O)N[C@@H](CCc1ccccc1)C(=O)CCS(=O)(=O)c2ccccc2], the inhibition at 10 µM was 3.66%.
Turning to `CC(C)C[C@H](NC(=O)OCc1ccccc1)C(=O)NC1CCOC1O` (stereo partly drawn) [SMDC279746, CC(C)C[C@H](NC(=O)OCc1ccccc1)C(=O)NC2CCOC2O], the inhibition at 10 µM turned out to be 5.05%.
Same read-out and setting: the value for `CCCC[C@H](NC(=O)[C@@H](NC(=O)c1cccc(CNC(=O)OC(C)(C)C)c1)[C@@H](C)CC)C(=O)C[N+](=O)[O-]` [SMDC279823, CCCC[C@H](NC(=O)[C@@H](NC(=O)c1cccc(CNC(=O)OC(C)(C)C)c1)[C@@H](C)CC)C(=O)C[N+](=O)[O-]] was -0.778%; that for `CC[C@H](C)[C@H](NC(=O)c1cccc(CN)c1)C(=O)N[C@@H](CCc1ccccc1)C(=O)COC` [SMDC279824, CC[C@H](C)[C@H](NC(=O)c1cccc(CN)c1)C(=O)N[C@@H](CCc2ccccc2)C(=O)COC] was 8%.
